Measured values from publication PMC12591182, “PD‐L1‐Targeting Biomimetic Photoresponsive Thermosensitive Liposomes for Triple‐Negative Breast Cancer” (Advanced Science, 2025).

System: PD-L1 expression in 4T1 cells
Assay: Immunoblot analysis of PD-L1 expression
Format: cell-based, mouse
Settings: 4T1 cells cultured 48 h after exposure at 42 ℃ for 10 min
Protocol: fluctuations were continuously recorded using an infrared thermal imaging camera (FLIR E50, USA).
Cell lysis and immunoblotting
Cells were washed with PBS and lysed using RIPA buffer supplemented with protease inhibitors. The lysates were subjected to SDS-PAGE (12% or 10% Bis-Tris gel) and subsequently transferred onto a nitrocellulose membrane. The membrane was blocked with TBS-T containing 5% non-fat dry milk, followed by overnight incubation with the primary antibody at 4 °C. After triplicate washing with TBS-T, the membrane was incubated with the HRP-conjugated secondary antibody for 1 h at room temperature and developed using ECL detection reagents.
The TRIzol reagent was used for RNA extraction according to the manufacturer's instructions. Total RNA was reverse -transcribed into cDNA using an iScript cDNA synthesis kit. Quantitative analysis of the target genes was performed using the Universal SYBR Green Supermix qPCR kit. GAPDH was used as the reference gene for relative quantification normalization, with details of the primer sequences provided in Supplementary Table 1. […]
The lysis buffer was then neutralized by adding an equal volume of RPMI 1640 medium, followed by centrifugation at 500 × g for 3 min. […] After incubation, the cells were washed with PBS to remove T cells and debris, followed by crystal violet staining to quantify the live cancer cells. […]

In the case of “GFTATPPPDSPQEP/PEIF [PTPRF, fluorinated PTPR: PTPR combined with fluorinated polyethyleneimine PEIF]”, the “concentration that effectively inhibited PD-L1 expression” value is reported as 10 µM.
